Test results from patent publication EP1071442B9, “METHODS AND COMPOSITIONS FOR PEPTIDE SYNTHESIS (T-20)” (priority 1998, dated 1999).
Residues, ends and D or L forms follow the SMILES beside them. *: point of attachment. NHTrityl = c1ccc(C(N*)(c2ccccc2)c2ccccc2)cc1; Fmoc = O=C(OCC1c2ccccc2-c2ccccc21)*; Boc = CC(C)(C)OC(=O)*; OtBu = CC(C)(C)O*; tBu = CC(C)(C)*

Tests used:
[1] = thermal stability of T-20 fragments (water-saturated or dry) at elevated temperatures, purity change by HPLC; format: physicochemical
Method: A series of experiments were conducted at to characterize the thermal stability of the intermediate T-20 fragments. T-20 fragments were saturated with water, filtered and then placed in enclosed containers and exposed to elevated temperatures. At several time points samples were collected and analyzed by HPLC methods to access the purity changes. Stability of the dry T-20 fragments was also characterized by thermogravimetric analysis (TGA).

| Structure (SMILES) | degradation ([1]; after 24 hours at 80 °C) | stability to drying ([1]; drying at 40 °C) | stability in 1% TFA/DCM |
| --- | --- | --- | --- |
| CC(C)C[C@H](NC(=O)[C@H](COC(C)(C)C)NC(=O)[C@H](C)NC(=O)[C@H](Cc1cn(C(=O)OC(C)(C)C)c2ccccc12)NC(=O)[C@H](CCCCNC(=O)OC(C)(C)C)NC(=O)[C@H](CC(=O)OC(C)(C)C)NC(=O)OCC1c2ccccc2-c2ccccc21)C(=O)N[C@@H](Cc1cn(C(=O)OC(C)(C)C)c2ccccc12)C(=O)N[C@@H](CC(=O)NC(c1ccccc1)(c1ccccc1)c1ccccc1)C(=O)N[C@@H](Cc1cn(C(=O)OC(C)(C)C)c2ccccc12)C(=O)N[C@@H](Cc1ccccc1)C(N)=O [F(27-36)-NH2] (Fmoc-D(OtBu)K(Boc)W(Boc)AS(tBu)LW(Boc)D(NHTrityl)W(Boc)F-NH2) | 1.4% | stable | – |
| CC(C)C[C@H](NC(=O)[C@H](CCC(=O)OC(C)(C)C)NC(=O)[C@H](CC(C)C)NC(=O)[C@H](CC(C)C)NC(=O)[C@H](CCC(=O)OC(C)(C)C)NC(=O)[C@H](CCC(=O)NC(c1ccccc1)(c1ccccc1)c1ccccc1)NC(=O)[C@H](CCC(=O)OC(C)(C)C)NC(=O)[C@H](CC(=O)NC(c1ccccc1)(c1ccccc1)c1ccccc1)NC(=O)[C@H](CCCCNC(=O)OC(C)(C)C)NC(=O)[C@H](CCC(=O)OC(C)(C)C)NC(=O)OCC1c2ccccc2-c2ccccc21)C(=O)O [F(17-26)-OH] (Fmoc-E(OtBu)K(Boc)D(NHTrityl)E(OtBu)E(NHTrityl)E(OtBu)LLE(OtBu)L-OH) | – | – | 1 %/day |
